{"source": "patent US20110105623A1", "about": "(Biogenic Innovations, LLC, priority 2009, published 2011)", "assay_type_in_all_cases": "cell-based", "key": {"[1]": {"test_system": "Lactobacillus acidophilus", "experiment": "Recovery from Acidophilus milk fortified with MSM into broth without MSM", "procedure": "The Acidophilus milk was low fat (Darigold). […] All preparations and plating was conducted at room temperature.\nThe recovery study was run parallel to the study done on the affects of MSM on growth of Lactobacillus acidophilus in Acidophilus milk fortified with MSM. The recovery growth rate was analyzed on Day 7, Day 14, Day 21 and Day 28. For Table 27, the growth for Day x with no time is calculated from the initial growth study with the dilution factor into the log growth. […] Table 28 takes the value of 2.00 as the starting value."}, "[2]": {"test_system": "Swine-like H1N1 Influenza A virus strain A/California/04/2009"}, "[3]": {"test_system": "Bacillus coagulans", "experiment": "Growth in simulated gastric acid supplemented with MSM"}}, "note": "Values joined by “and” are separate entries in the source; they are usually repeats but may differ in a detail not shown here. Equal values may be shown once. Read-outs that look alike come from different tables or passages of the source."}
{"substance": "Methylsulfonylmethane [MSM]", "values": [{"measurement": "Day 28 log recovery growth rate increase from start time of zero", "setting": "[1]; 5.0% MSM, Time 72", "result": "−0.39", "unit": "logs"}, {"measurement": "Recovery of Lactobacillus acidophilus in Milk fortified with MSM Day 7, initial start data", "setting": "[1]; […] MSM, Day 7", "result": 8.50, "unit": "logs"}, {"measurement": "Recovery of Lactobacillus acidophilus in Milk fortified with MSM Day 7, average recovery", "setting": "[1]; […] MSM, Day 7-24", "result": 13.16, "unit": "logs"}, {"measurement": "Recovery of Lactobacillus acidophilus in Milk fortified with MSM Day 7, average recovery", "setting": "[1]; […] MSM, Day 7-48", "result": 12.36, "unit": "logs"}, {"measurement": "Recovery of Lactobacillus acidophilus in Milk fortified with MSM Day 7, average recovery", "setting": "[1]; […] MSM, Day 7-72", "result": 12.60, "unit": "logs"}, {"measurement": "Recovery of Lactobacillus acidophilus in Milk fortified with MSM Day 14, initial start data", "setting": "[1]; […] MSM, Day 14-0", "result": 5.33, "unit": "logs"}, {"measurement": "Recovery of Lactobacillus acidophilus in Milk fortified with MSM Day 14, average recovery", "setting": "[1]; […] MSM, Day 14-24", "result": 9.87, "unit": "logs"}, {"measurement": "Recovery of Lactobacillus acidophilus in Milk fortified with MSM Day 14, average recovery", "setting": "[1]; […] MSM, Day 14-48", "result": 12.32, "unit": "logs"}, {"measurement": "Recovery of Lactobacillus acidophilus in Milk fortified with MSM Day 14, average recovery", "setting": "[1]; […] MSM, Day 14-72", "result": 12.57, "unit": "logs"}, {"measurement": "Recovery of Lactobacillus acidophilus in Milk fortified with MSM Day 21, initial start data", "setting": "[1]; […] MSM, Day 21", "result": 3.47, "unit": "logs"}, {"measurement": "Recovery of Lactobacillus acidophilus in Milk fortified with MSM Day 21, average recovery", "setting": "[1]; […] MSM, Day 21-24", "result": 10.79, "unit": "logs"}, {"measurement": "Recovery of Lactobacillus acidophilus in Milk fortified with MSM Day 21, average recovery", "setting": "[1]; […] MSM, Day 21-48", "result": 12.78, "unit": "logs"}, {"measurement": "Recovery of Lactobacillus acidophilus in Milk fortified with MSM Day 21, average recovery", "setting": "[1]; […] MSM, Day 21-72", "result": 13.10, "unit": "logs"}, {"measurement": "Recovery of Lactobacillus acidophilus in Milk fortified with MSM Day 28, initial start data", "setting": "[1]; […] MSM, Day 28", "result": 1.33, "unit": "logs"}, {"measurement": "Recovery of Lactobacillus acidophilus in Milk fortified with MSM Day 28, average recovery", "setting": "[1]; […] MSM, Day 28-24", "result": 6.37, "unit": "logs"}, {"measurement": "Lag Recovery of Lactobacillus acidophilus in Milk fortified with MSM Day 28", "setting": "[1]; […] MSM, Day 28-24, duplicates", "result": 6.37, "unit": "logs"}, {"measurement": "Recovery of Lactobacillus acidophilus in Milk fortified with MSM Day 28, average recovery", "setting": "[1]; […] MSM, Day 28-48", "result": 12.57, "unit": "logs"}, {"measurement": "Recovery of Lactobacillus acidophilus in Milk fortified with MSM Day 28, average recovery", "setting": "[1]; […] MSM, Day 28-72", "result": 12.66, "unit": "logs"}, {"measurement": "Day 7 log recovery growth rate increase from start time of zero", "setting": "[1]; […] MSM, Hour 0", "result": 0.00, "unit": "logs"}, {"measurement": "Day 14 log recovery growth rate increase from start time of zero", "setting": "[1]; […] MSM, Hour 0", "result": 0.00, "unit": "logs"}, {"measurement": "Day 21 log recovery growth rate increase from start time of zero", "setting": "[1]; […] MSM, Hour 0", "result": 0.00, "unit": "logs"}, {"measurement": "Day 7 log recovery growth rate increase from start time of zero", "setting": "[1]; […] MSM, Hour 24", "result": 4.66, "unit": "logs"}, {"measurement": "Day 14 log recovery growth rate increase from start time of zero", "setting": "[1]; […] MSM, Hour 24", "result": 4.54, "unit": "logs"}, {"measurement": "Day 21 log recovery growth rate increase from start time of zero", "setting": "[1]; […] MSM, Hour 24", "result": 7.32, "unit": "logs"}, {"measurement": "Day 7 log recovery growth rate increase from start time of zero", "setting": "[1]; […] MSM, Hour 48", "result": "−0.8", "unit": "logs"}, {"measurement": "Day 14 log recovery growth rate increase from start time of zero", "setting": "[1]; […] MSM, Hour 48", "result": 2.45, "unit": "logs"}, {"measurement": "Day 21 log recovery growth rate increase from start time of zero", "setting": "[1]; […] MSM, Hour 48", "result": 2.00, "unit": "logs"}, {"measurement": "Day 7 log recovery growth rate increase from start time of zero", "setting": "[1]; […] MSM, Hour 72", "result": 0.25, "unit": "logs"}, {"measurement": "Day 14 log recovery growth rate increase from start time of zero", "setting": "[1]; […] MSM, Hour 72", "result": 0.26, "unit": "logs"}, {"measurement": "Day 21 log recovery growth rate increase from start time of zero", "setting": "[1]; […] MSM, Hour 72", "result": 0.32, "unit": "logs"}, {"measurement": "Day 28 log recovery growth rate increase from start time of zero", "setting": "[1]; […] MSM, Time 0", "result": 0.00, "unit": "logs"}, {"measurement": "Day 28 log recovery growth rate increase from start time of zero", "setting": "[1]; […] MSM, Time 24", "result": 5.04, "unit": "logs"}, {"measurement": "Day 28 log recovery growth rate increase from start time of zero", "setting": "[1]; […] MSM, Time 48", "result": 6.20, "unit": "logs"}, {"measurement": "Day 28 log recovery growth rate increase from start time of zero", "setting": "[1]; […] MSM, Time 72", "result": 0.09, "unit": "logs"}, {"measurement": "Average Log Stimulation", "setting": "[2]", "result": 0.17, "unit": "log10"}, {"measurement": "Average Percent Stimulation", "setting": "[2]", "result": 32.39, "unit": "%"}, {"measurement": "Average TCID50", "setting": "[2]", "result": "3.67log10 and 4.42log10 and 4.67log10 and 5.00log10 and 4.58log10 and 4.17log10"}, {"measurement": "CPE at dilution −6", "setting": "[2]", "result": "0000"}, {"measurement": "CPE at dilution −7", "setting": "[2]", "result": "0000"}, {"measurement": "Log Stimulation", "setting": "[2]", "result": 0.17, "unit": "log10"}, {"measurement": "Percent Stimulation", "setting": "[2]", "result": 32.39, "unit": "%"}, {"measurement": "TCID50", "setting": "[2]", "result": "3.75log10 and 3.50log10 and 4.00log10 and 4.50log10 and 4.25log10 and 4.75log10 and 5.00log10"}, {"measurement": "average percent reduction", "setting": "[2]", "result": "93.08% and 90.00% and 61.10% and 78.12%"}, {"measurement": "average log10 reduction", "setting": "[2]; 1% MSM", "result": 0.25, "unit": "log10"}, {"measurement": "average percent reduction", "setting": "[2]; 1% MSM", "result": 43.77, "unit": "%"}, {"measurement": "average log10 reduction", "setting": "[2]; 2% MSM", "result": 0.41, "unit": "log10"}, {"measurement": "average percent reduction", "setting": "[2]; 2% MSM", "result": 61.10, "unit": "%"}, {"measurement": "average log10 reduction", "setting": "[2]; 3% MSM", "result": 0.00, "unit": "log10"}, {"measurement": "average percent reduction", "setting": "[2]; 3% MSM", "result": "00.00", "unit": "%"}, {"measurement": "average log10 reduction", "setting": "[2]; 4% MSM", "result": 0.16, "unit": "log10"}, {"measurement": "average percent reduction", "setting": "[2]; 4% MSM", "result": 30.82, "unit": "%"}, {"measurement": "Response, % reduction", "setting": "[2]; Dose 5.312 mM (log dose 0.7252581)", "result": "91.680% and 53.230% and 73.700%"}, {"measurement": "Response, % reduction", "setting": "[2]; Dose 31.871 mM (log dose 1.503396)", "result": 0.000, "unit": "%"}, {"measurement": "Response, % reduction", "setting": "[2]; Dose 53.118 mM (log dose 1.725242)", "result": "53.230% and 73.700%"}, {"measurement": "HillSlope, best-fit value", "setting": "[2]; log(inhibitor) vs. normalized response, variable slope", "result": 0.2135}, {"measurement": "LogIC50, best-fit value", "setting": "[2]; log(inhibitor) vs. normalized response, variable slope, dose in mM", "result": 0.7087}, {"measurement": "Log Growth of Bacillus coagulans average", "setting": "[3]; 5% MSM, 0 hours", "result": 0.26, "unit": "logs"}, {"measurement": "Log Growth of Bacillus coagulans average", "setting": "[3]; 5% MSM, 3 hours", "result": 0, "unit": "logs"}, {"measurement": "Log Growth of Bacillus coagulans in duplicate", "setting": "[3]; 5% MSM, 3 hours", "result": 0, "unit": "logs"}, {"measurement": "Log Growth of Bacillus coagulans average", "setting": "[3]; 5% MSM, 6 hours", "result": 0, "unit": "logs"}, {"measurement": "Log Growth of Bacillus coagulans in duplicate", "setting": "[3]; 5% MSM, 6 hours", "result": 0, "unit": "logs"}, {"measurement": "Log Growth of Bacillus coagulans average", "setting": "[3]; 5% MSM, 9 hours", "result": 0, "unit": "logs"}, {"measurement": "Log Growth of Bacillus coagulans in duplicate", "setting": "[3]; 5% MSM, 9 hours", "result": 0, "unit": "logs"}, {"measurement": "Log Growth of Bacillus coagulans average", "setting": "[3]; 5% MSM, 12 hours", "result": 0, "unit": "logs"}, {"measurement": "Log Growth of Bacillus coagulans in duplicate", "setting": "[3]; 5% MSM, 12 hours", "result": 0, "unit": "logs"}, {"measurement": "Log Growth of Bacillus coagulans average", "setting": "[3]; 5% MSM, 15 hours", "result": 0.26, "unit": "logs"}, {"measurement": "Log Growth of Bacillus coagulans average", "setting": "[3]; 5% MSM, 24 hours", "result": 0, "unit": "logs"}, {"measurement": "Log Growth of Bacillus coagulans in duplicate", "setting": "[3]; 5% MSM, 24 hours", "result": 0, "unit": "logs"}, {"measurement": "Log Growth of Bacillus coagulans average", "setting": "[3]; 5% MSM, 48 hours", "result": 0, "unit": "logs"}, {"measurement": "Log Growth of Bacillus coagulans in duplicate", "setting": "[3]; 5% MSM, 48 hours", "result": 0, "unit": "logs"}, {"measurement": "Log Growth of Bacillus coagulans in duplicate", "setting": "[3]; […] MSM, 0 hours", "result": 0, "unit": "logs"}, {"measurement": "Log Growth of Bacillus coagulans in duplicate", "setting": "[3]; […] MSM, 3 hours", "result": 0, "unit": "logs"}, {"measurement": "Log Growth of Bacillus coagulans average", "setting": "[3]; […] MSM, 9 hours", "result": 0, "unit": "logs"}, {"measurement": "Log Growth of Bacillus coagulans in duplicate", "setting": "[3]; […] MSM, 9 hours", "result": 0, "unit": "logs"}, {"measurement": "Log Growth of Bacillus coagulans in duplicate", "setting": "[3]; […] MSM, 12 hours", "result": 0, "unit": "logs"}, {"measurement": "Log Growth of Bacillus coagulans average", "setting": "[3]; […] MSM, 15 hours", "result": 0, "unit": "logs"}, {"measurement": "Log Growth of Bacillus coagulans in duplicate", "setting": "[3]; […] MSM, 15 hours", "result": 0, "unit": "logs"}, {"measurement": "Log Growth of Bacillus coagulans average", "setting": "[3]; […] MSM, 24 hours", "result": 0, "unit": "logs"}, {"measurement": "Log Growth of Bacillus coagulans in duplicate", "setting": "[3]; […] MSM, 24 hours", "result": 0, "unit": "logs"}, {"measurement": "Log Growth of Bacillus coagulans average", "setting": "[3]; […] MSM, 48 hours", "result": 0, "unit": "logs"}, {"measurement": "Log Growth of Bacillus coagulans in duplicate", "setting": "[3]; […] MSM, 48 hours", "result": 0, "unit": "logs"}, {"measurement": "initial recovery, average", "setting": "[3]; […] and 5.0% MSM", "result": 0.26, "unit": "logs"}]}
